# Assays:
# [1] = Absorbance (UV-VIS) in methanol; assay type: physicochemical; conditions: ε665 for 2 (peak 660 nm), ε785 for 4 (peak 785 nm)
# Procedure: Absorbance of 2 and 4 was measured using different concentrations in methanol on UV-VIS and indicates far-red peaks at 660 nm and 785 nm, with extinction coefficients ε665=47,500 L·mol^−1 cm^−1 and ε785=18,100 L·mol^−1 cm^−1 respectively.
# Chemistry Methods: All reactions were carried out in heat gun-dried glassware under an atmosphere of nitrogen and magnetic stirring. Thin layer chromatography (TLC) was done on pre-coated silica gel sheets (layer thickness 0.2 mm). Column chromatography was performed either using silica gel 60 (70-230 mesh) or neutral alumina grade III. In some cases preparative TLC was used for the purification of compounds. Purity of the compounds was ascertained by TLC and HPLC analysis. All compounds including the intermediates were >95% pure. UV-visible spectra were recorded on FT UV-visible spectrophotometer using methanol as a solvent. Mass spectrometry analyses were performed at the Mass Spectrometry Facility, University at Buffalo, N.Y. Compounds 1 and 2 were synthesized by following the methodologies previously described.
# [2] = Singlet oxygen NIR emission in O2-saturated C6D6 versus C60 standard; assay type: physicochemical; conditions: O2-saturated C6D6, excitation 532 nm, emission at 1270 nm compared with C60
# Text: Excitation wavelength: 532 nm.
# After monitoring absorption characteristics in several organic and aqueous solvents, it was hypothesized that the aggregation state of 4 could have contributed in decreasing the fluorescence and singlet oxygen quantum yields. The quantum yield of singlet oxygen from 4 was ΦO2=0.31 determined by the comparison of the emission intensity at 1270 nm as compared with C60 used as a standard (ΦO2=0.96) (FIG. 5).
# [3] = Photobleaching in 17% bovine calf serum; assay type: physicochemical; conditions: 17% BCS, dye laser 75 mW/cm^2, 785 nm for 4
# Procedure: Photobleaching was performed in quartz cuvettes on a 5 μM solution of 2 and a 25 μM solution of 4 in 17% BCS. The higher molarity was chosen to approximate the absorbance of 2 at 5 μM. A dye laser was used at dose rate 75 mW/cm^2, and excitation wavelength for 2 was 660 nm and for 4 was 785 nm.
# In photodynamic therapy, photobleaching is the photochemical alteration of a chromophore or a fluorophore molecule such that could either permanently is unable to fluoresce or alter its fluorescence characteristics. This is caused by cleaving of the covalent bonds or non-specific reaction between the reactive oxygen species (e.g., singlet oxygen) and the molecule. These […] species formed by conversion of the molecular oxygen present in tumor to singlet oxygen by exposing the photosensitizer with light at an appropriate wavelength. The rate of photobleaching of the PS should depend (a) availability of oxygen, (b) photostability of PS and finally (c) the singlet oxygen (or other reactive oxygen species) producing ability of the PS.
# To investigate the photobleaching characteristics of the photosensitizers, compounds 2 and 4 in equimolar concentrations (5 μM) were taken in quartz cuvettes in 17% bovine calf serum. Dye lasers with appropriate wavelength (2: 660 nm and 4: 785 nm) were used at a dose rate of 75 mW/cm^2. Both the compounds in formulated forms were irradiated with light and the absorption spectra at their long wavelength absorptions were measured with time. The decay in absorbance was plotted against the time of light exposure.
# Colon26 cells = assay: In vitro cytotoxicity (PDT) MTT assay; assay type: cell-based; conditions: variable drug concentrations, fixed light dose 1.0 J/cm^2 (FIG. 8A)
# Procedure: Drug concentrations were increased 10× (0.25 to 32.0 μM) and a significant cytotoxicity was observed only at high concentrations at the highest light dose.
# Assessment of cell growth following treatment with compound solutions alone and after light exposure was determined by a colorimetric assay that measured the reduction of yellow 3-(4,5-dimethythiazol-2-yl)-2,5-diphenyl tetrazolium bromide (MTT) by mitochondrial succinate dehydrogenase.
# Briefly cells were plated into 96 well plates, allowed to adhere to the plate and are treated with a range of compound concentrations for various lengths of time. The light source consisted of dye lasers (375; Spectra-Physics, Mt. View, Calif.) pumped by an argon-ion laser (either 171 or 2080; Spectra-Physics). The dye lasers were tuned to the appropriate wavelength for the compound being tested. Total light doses were ranged from 0.125 to 1.0 J/cm^2 at a fluence rate of 3.2 mW/cm^2. At 48 hours post PDT treatment, MTT was added. The solubilized formazan product was measured spectro-photometrically using a BIOTEK EL-800 plate reader. Data were processed using GEN5 software. A medium blank value was subtracted from all samples and Optical Density (O.D.) values of treated cells were divided by mean O.D. value of untreated cells for each light dose).
# Colon26 cells were plated and allowed to adhere for 4 hours, then the photosensitizer was added and incubated at 37° C. for 24 hours. Plates were irradiated with 789 nm light from a dye laser at 3.2 mW/cm^2 for a total dose of 0.25 to 1.0 Joule/cm^2.
# Colon26 tumors = assay: In vivo PDT efficacy; set-up: species or system BALB/c mice
# Procedure: Tumors were exposed to light (135 J/cm^2, 75 mW/cm^2) at 24 h (hour) postinjection (optimal time for tumor uptake for both the PSs).
# For determining the in vivo imaging and therapeutic potential of 2, BALB/c mice (5-10 mice/group) bearing Colon26 tumors were used. In brief, 1×10^6 Colon26 cells were injected in mice subcutaneously. The tumors were left to grow for 1 week until they achieve the desired size (3-5 mm) for treatment. The photosensitizer was injected intravenously following the animal protocol approved by RPCI IACUC committee. Irradiance occurred 24 hours after i. v. injection; light dose was 135 J/cm^2 at a dose rate of 75 mW/cm^2 using the near-IR wavelengths of interest: 665 nm or 789 nm.
# Two axes of the tumor (L, longest axis; W, shortest axis) were measured in millimeters with the aid of a Vernier caliper. Tumor weight (mg) was estimated as a formula: tumor weight=1/2 (L×W2). Tumor measurements were taken daily for the first 10 days and at least three tine a week for the first 4 weeks of post therapy and twice a week thereafter. Endpoints were 400 mm^3 tumor volume or 60 days.
substance,measurement,setting,value
methyl 3-[1′-(m-iodobenzyloxy)ethyl]-3-devinyl-13^3-keto-13^2-methoxycyclohexene [Compound 4],extinction coefficient at far-red absorbance peak,[1],"18,100 L·mol^−1 cm^−1"
same,quantum yield of singlet oxygen ΦO2,[2],0.31
same,photobleaching (in words),[3],negligible photobleaching
same,in vitro cytotoxicity (in words),Colon26 cells,did not produce any significant cell kill
same,PDT efficacy compared with 2 (in words),Colon26 tumors; BALB/c mice bearing Colon26 tumors,far lower than that of 2
same,tumor cure after PDT,"Colon26 tumors; dose 1 μmol/kg, light 135 J/cm^2, 75 mW/cm^2 at 24 h postinjection, 5 mice/group",no tumor cure
same,long-term PDT efficacy at higher drug doses (in words),"Colon26 tumors; higher drug doses than 1 μmol/kg, light 135 J/cm^2, 75 mW/cm^2 at 24 h",no significant long-term PDT efficacy

# Reference: patent publication US20220194952A1, “TETRAPYRROLIC CONJUGATES AND USES THEREOF FOR IMAGING” (Health Research, Inc., priority 2019, published 2022)
